Source: patent publication US20240199601A1, “QUINONE COMPOUND AND PHARMACEUTICAL USE THEREOF” (NANJING SHUPENG LIFE SCIENCE CO., LTD., priority 2021, published 2024)

Experiments:
[1] = test system: autophagy related protein (LC3B); assay: LC3B expression in RAW264.7 cells (protein hybridization); format: cell-based; settings: different concentrations, 24 hours
Description: (§1) RAW264.7 cells were inoculated into two six-well plates and enabled to grow to a density of about 90%, and SP3101 and SP3102 of different concentrations were added, respectively. 24 hours later, the cells were lysed with a radio immunoprecipitation assay (RIPA) lysis buffer, and the expression of proteins was detected by protein hybridization.
(§2) Phosphorylation of serine at the 127th site of AMPK is used as an activation marker. […] It can be seen that the compounds, represented by the SP3101 and the SP3102, of the present invention are used as an AMPK agonist.

[2] = test system: MHV-A59 virus-induced lung inflammation; assay: MHV-A59 virus-induced lung inflammation of mice; format: in vivo, C57BL/B6 mice; settings: 20 mg/kg/day by gavage for 5 days
Description: As viral pneumonia of C57BL/B6 mice can be induced by nasal dropping of an MHV-A59 virus, the ability of SP3101 to inhibit virus-induced lung inflammation of mice is studied using such model.
An MHV-A59 virus strain was purchased from Suzhou Xishan Biotechnology Co., Ltd. at a PFU/ml of 1.4×10^7.
6-week-old mice were divided into 3 groups with 8 mice in each group. After anesthesia, the mice in a blank control group were administered with normal saline through the noses, and viral pneumonia models of the other two groups were constructed as follows: 10 μL of an MHV was injected into the nose of each mouse at a PFU of 1.4×10^5 with 5 μL into the left nostril and the right nostril, respectively, and about 3-6 hours later, the mice woke up. The mice in a model treatment group were administered with an SP3101 aqueous solution by gavage at a dose of 20 mg/kg body weight/day (mg/kg/day).
After continuous administration for 5 days, the mice were anesthetized and dissected 4 hours after the last administration, and the lungs were taken out, fixed with paraformaldehyde and stored for hematoxylin-eosin (HE) section staining.

[3] = test system: paclitaxel-induced hyperalgesia; assay: Paclitaxel chemotherapy pain model; format: in vivo, B6 mice; settings: 40 mg/kg by gavage once a day for 15 days, paclitaxel 4 mg/kg i.p. x4, mice, Von Frey 0.07 g and 0.4 g
Source text: A total of 30 8- to 10-week-old male B6 mice were selected and allowed to adapt to the environment for three days.
On DAY 0, mechanical pain thresholds were detected by using Von Frey fibrils, the mice with abnormal pain thresholds were abandoned, and the basic pain thresholds were basically about 0.6-1.0 g. According to the basic pain thresholds, a pain threshold of 0.07 g was used in this test, and a pain threshold of 0.4 g was used in subsequent detection. Behaviors such as foot lifting and foot licking were identified as positive responses. […] The mice were randomly divided into the following groups: (1) a model control group (PC, n=10), (2) an SP3101 group administered at a dose of 40 mg/kg (n=10) by gavage and (3) a blank control group (NC). The mice in the model control group were administrated with double distilled water by gavage, the mice in the model control group and the SP3101 group were administrated with paclitaxel (4 mg/kg) by intraperitoneal injection 0.5 hour later, and the mice in the blank control group were administrated with normal saline by intraperitoneal injection. […] The first modeling day was determined as DAY 0. […] On DAY 0, 3, 7, 9, 14, 18 and 21, the mechanical pain thresholds were detected.

[4] = test system: cisplatin-induced hyperalgesia; assay: Cisplatin chemotherapy pain model; format: in vivo, B6 mice; settings: 40 mg/kg/day by gavage, cisplatin 2.3 mg/kg/day i.p., mice, Von Frey 0.4 g and 1.0 g
Source text: 20 12-week-old male B6 mice were selected and allowed to adapt to the environment for three days.
On DAY 1, basic mechanical pain thresholds were detected by using Von Frey fibrils, the mice with abnormal pain thresholds were abandoned (no abnormal mice were found in this batch), and the pain thresholds were basically about 1.4-2.0 g. According to the basic pain thresholds, a pain threshold of 0.4 g was used in this test, and a pain threshold of 1.0 g was used in subsequent detection Behaviors such as foot lifting and foot licking were identified as positive responses.
On DAYS 1-5, after the basic mechanical pain thresholds were detected, the mice were randomly divided into the following groups: (1) a model control group (n=10) and (2) an SP3101 group (n=10) administered by gavage at a dose of 40 mg/kg/day, where the mice in the model control group were administered with double distilled water by gavage, and the mice in the two groups were administered with cisplatin prepared with normal saline (2.3 mg/kg/day) by intraperitoneal injection 0.5 hour later.
On DAYS 6-10, the mice were only administered with SP3101 and water by gavage, and on DAY 7, the mechanical pain thresholds were detected.
On DAYS 11-15, the operations on DAYS 1-5 were repeated, and on DAY 15, the mechanical pain thresholds were detected. […]

[5] = test system: AMPK; assay: AMPK agonist test in RAW264.7 cells (protein hybridization, p-AMPK); format: cell-based; settings: 0.1 μM, 24 hours
Description: as §1, §2

[6] = test system: oxaliplatin-induced hyperalgesia; assay: Oxaliplatin chemotherapy pain model; format: in vivo, C57LB6 mice; settings: 40 mg/kg by gavage, oxaliplatin 3 mg/kg i.p., mice, Von Frey
Description: A total of 30 10-week-old wild male C57LB6 mice were selected.
On DAY 0, the mice were allowed to adapt to the environment for 7 days first, basic mechanical pain thresholds were detected and were basically about 1-1.4 g, and a total of 30 mice were used in this test without abnormal mice.
On DAYS 1-5, the mice were randomly divided into 3 groups including a blank control group (n=10), a model control group (n=10) and an SP3101 group (40 mg/kg, n=10). The mice in the SP3101 group were administrated with an SP3101 aqueous solution by gavage, the mice in the model control group were administrated with double distilled water by gavage, and the mice in the model control group and the SP3101 group were administrated with oxaliplatin (3 mg/kg) by intraperitoneal injection 0.5 hour later. The same operations were continuously performed for 5 days. On DAY 5, the pain thresholds were detected by using Von Frey fibrils.
On DAYS 6-10, the mice were only administered with SP3101 and water by gavage.
On DAYS 11-15, the operations on DAYS 1-5 were repeated, and on DAY 11, the pain thresholds were detected by using Von Frey fibrils.
On DAYS 16-20, the mice were only observed, and on DAY 16 and DAY 20, the mechanical pain thresholds were detected.

O=C1C(=O)c2nc(O)cc(C(=O)O)c2-c2[nH]ccc21 [SP3101, 4,5-dioxo-4,5-dihydro-1H-pyrrolo[2,3-f]quinone-7-hydroxy-9-carboxylic acid]
expression of autophagy related protein (LC3B) [1]: also increased
inhibition of virus-induced lung inflammation (HE sections) [2]: obvious effect of inhibiting virus-induced lung inflammation
alleviation of paclitaxel-induced hyperalgesia [3]: obvious effect of alleviating the paclitaxel-induced hyperalgesia
alleviation of cisplatin-induced hyperalgesia [4]: obvious effect of alleviating
activation of AMPK (expression of p-AMPK) [5]: obviously activate the AMPK
prevention of oxaliplatin-induced hyperalgesia [6]: obviously prevent oxaliplatin-induced hyperalgesia
